Reference: ChEMBL document CHEMBL1240439, “Synthesis and docking studies of novel benzopyran-2-ones with anticancer activity” (2010)
Activity calls are given as the source filed them.

Assays:
Type in all cases: functional
SK-MEL-28 = assay: Cytotoxicity against human SK-MEL-28 cells assessed as cell growth at 10 uM after 48 hrs by sulforhodamine B assay
SNB-75 = assay: Cytotoxicity against human SNB75 cells assessed as cell growth at 10 uM after 48 hrs by sulforhodamine B assay
Malme-3M = assay: Cytotoxicity against human MALME-3M cells assessed as cell growth at 10 uM after 48 hrs by sulforhodamine B assay
RXF 393 = assay: Cytotoxicity against human RXF393 cells assessed as cell growth at 10 uM after 48 hrs by sulforhodamine B assay
SK-MEL-5 = assay: Cytotoxicity against human SK-MEL-5 cells assessed as cell growth at 10 uM after 48 hrs by sulforhodamine B assay
SW-620 = assay: Cytotoxicity against human SW620 cells assessed as cell growth at 10 uM after 48 hrs by sulforhodamine B assay
IGROV-1 = assay: Cytotoxicity against human IGROV1 cells assessed as cell growth at 10 uM after 48 hrs by sulforhodamine B assay
MOLT-4 = assay: Cytotoxicity against human MOLT4 cells assessed as cell growth at 10 uM after 48 hrs by sulforhodamine B assay
UACC-62 = assay: Cytotoxicity against human UACC62 cells assessed as cell growth at 10 uM after 48 hrs by sulforhodamine B assay
HCT-15 = assay: Cytotoxicity against human HCT15 cells assessed as cell growth at 10 uM after 48 hrs by sulforhodamine B assay
EKVX = assay: Cytotoxicity against human EKVX cells assessed as cell growth at 10 uM after 48 hrs by sulforhodamine B assay
NCI-H226 = assay: Cytotoxicity against human NCI-H226 cells assessed as cell growth at 10 uM after 48 hrs by sulforhodamine B assay
ACHN = assay: Cytotoxicity against human ACHN cells assessed as cell growth at 10 uM after 48 hrs by sulforhodamine B assay
UACC-257 = assay: Cytotoxicity against human UACC257 cells assessed as cell growth at 10 uM after 48 hrs by sulforhodamine B assay
HOP-62 = assay: Cytotoxicity against human HOP62 cells assessed as cell growth at 10 uM after 48 hrs by sulforhodamine B assay
U-251 = assay: Cytotoxicity against human U251 cells assessed as cell growth at 10 uM after 48 hrs by sulforhodamine B assay
HT-29 = assay: Cytotoxicity against human HT-29 cells assessed as cell growth at 10 uM after 48 hrs by sulforhodamine B assay
MCF7 = assay: Cytotoxicity against human MCF7 cells assessed as cell growth at 10 uM after 48 hrs by sulforhodamine B assay
SF-295 = assay: Cytotoxicity against human SF295 cells assessed as cell growth at 10 uM after 48 hrs by sulforhodamine B assay
UO-31 = assay: Cytotoxicity against human UO31 cells assessed as cell growth at 10 uM after 48 hrs by sulforhodamine B assay
OVCAR-4 = assay: Cytotoxicity against human OVCAR4 cells assessed as cell growth at 10 uM after 48 hrs by sulforhodamine B assay
SF-268 = assay: Cytotoxicity against human SF268 cells assessed as cell growth at 10 uM after 48 hrs by sulforhodamine B assay
KM12 = assay: Cytotoxicity against human KM12 cells assessed as cell growth at 10 uM after 48 hrs by sulforhodamine B assay
HOP-92 = assay: Cytotoxicity against human HOP92 cells assessed as cell growth at 10 uM after 48 hrs by sulforhodamine B assay
OVCAR-5 = assay: Cytotoxicity against human OVCAR5 cells assessed as cell growth at 10 uM after 48 hrs by sulforhodamine B assay
MDA-MB-231 = assay: Cytotoxicity against human MDA-MB-231 cells assessed as cell growth at 10 uM after 48 hrs by sulforhodamine B assay
OVCAR-8 = assay: Cytotoxicity against human OVCAR8 cells assessed as cell growth at 10 uM after 48 hrs by sulforhodamine B assay
LOX IMVI = assay: Cytotoxicity against human LOXIMVI cells assessed as cell growth at 10 uM after 48 hrs by sulforhodamine B assay
M14 = assay: Cytotoxicity against human M14 cells assessed as cell growth at 10 uM after 48 hrs by sulforhodamine B assay
Hs-578T = assay: Cytotoxicity against human Hs 578T cells assessed as cell growth at 10 uM after 48 hrs by sulforhodamine B assay
RPMI-8226 = assay: Cytotoxicity against human RPMI8226 cells assessed as cell growth at 10 uM after 48 hrs by sulforhodamine B assay
MDA-MB-435 = assay: Cytotoxicity against human MDA-MB-435 cells assessed as cell growth at 10 uM after 48 hrs by sulforhodamine B assay
MDA-MB-468 = assay: Cytotoxicity against human MDA-MB-468 cells assessed as cell growth at 10 uM after 48 hrs by sulforhodamine B assay
HCT-116 = assay: Cytotoxicity against human HCT116 cells assessed as cell growth at 10 uM after 48 hrs by sulforhodamine B assay
A549 = assay: Cytotoxicity against human A549 cells assessed as cell growth at 10 uM after 48 hrs by sulforhodamine B assay
NCI-H322M = assay: Cytotoxicity against human NCI-H322M cells assessed as cell growth at 10 uM after 48 hrs by sulforhodamine B assay
NCI-H460 = assay: Cytotoxicity against human NCI-H460 cells assessed as cell growth at 10 uM after 48 hrs by sulforhodamine B assay
CCRF-CEM = assay: Cytotoxicity against human CCRF-CEM cells assessed as cell growth at 10 uM after 48 hrs by sulforhodamine B assay
SK-MEL-2 = assay: Cytotoxicity against human SK-MEL-2 cells assessed as cell growth at 10 uM after 48 hrs by sulforhodamine B assay
HL-60(TB) = assay: Cytotoxicity against human HL-60(TB) cells assessed as cell growth at 10 uM after 48 hrs by sulforhodamine B assay
SF-539 = assay: Cytotoxicity against human SF539 cells assessed as cell growth at 10 uM after 48 hrs by sulforhodamine B assay
COLO 205 = assay: Cytotoxicity against human COLO205 cells assessed as cell growth at 10 uM after 48 hrs by sulforhodamine B assay
DU-145 = assay: Cytotoxicity against human DU145 cells assessed as cell growth at 10 uM after 48 hrs by sulforhodamine B assay
BT-549 = assay: Cytotoxicity against human BT549 cells assessed as cell growth at 10 uM after 48 hrs by sulforhodamine B assay
SN12C = assay: Cytotoxicity against human SN12C cells assessed as cell growth at 10 uM after 48 hrs by sulforhodamine B assay
786-0 = assay: Cytotoxicity against human 786-0 cells assessed as cell growth at 10 uM after 48 hrs by sulforhodamine B assay
SR = assay: Cytotoxicity against human SR cells assessed as cell growth at 10 uM after 48 hrs by sulforhodamine B assay
PC-3 = assay: Cytotoxicity against human PC3 cells assessed as cell growth at 10 uM after 48 hrs by sulforhodamine B assay
SNB-19 = assay: Cytotoxicity against human SNB19 cells assessed as cell growth at 10 uM after 48 hrs by sulforhodamine B assay
K562 = assay: Cytotoxicity against human K562 cells assessed as cell growth at 10 uM after 48 hrs by sulforhodamine B assay
NCI-H23 = assay: Cytotoxicity against human NCI-H23 cells assessed as cell growth at 10 uM after 48 hrs by sulforhodamine B assay
A498 = assay: Cytotoxicity against human A498 cells assessed as cell growth at 10 uM after 48 hrs by sulforhodamine B assay
HCC 2998 = assay: Cytotoxicity against human HCC2998 cells assessed as cell growth at 10 uM after 48 hrs by sulforhodamine B assay
T47D = assay: Cytotoxicity against human T47D cells assessed as cell growth at 10 uM after 48 hrs by sulforhodamine B assay
NCI-H522 = assay: Cytotoxicity against human NCI-H522 cells assessed as cell growth at 10 uM after 48 hrs by sulforhodamine B assay
OVCAR-3 = assay: Cytotoxicity against human OVCAR-3 cells assessed as cell growth at 10 uM after 48 hrs by sulforhodamine B assay
SK-OV-3 = assay: Cytotoxicity against human SKOV3 cells assessed as cell growth at 10 uM after 48 hrs by sulforhodamine B assay
TK-10 = assay: Cytotoxicity against human TK10 cells assessed as cell growth at 10 uM after 48 hrs by sulforhodamine B assay

Measured: Activity

CCCc1cc(=O)oc2c(C)c(OCC(=O)n3nc(C)cc3C)ccc12
inactive: all assays above

Cc1cc(C)n(C(=O)COc2ccc3c(-c4ccccc4)cc(=O)oc3c2C)n1
inactive: all assays above
